From the Kinase Knowledgebase extract (Sharma et al. 2016)
≈ marks a conversion by molar mass, not a printed value.

These compounds were tested against CDK2 (human) (UniProt P24941) (assay: Enzyme Assay).

SMILES | IC50 [µg/mL]
CC(C)(C)c1cc2c(NN=Cc3cncs3)ncnc2s1 | 0.059 (≈ 0.186 µM)
CNC(C)c1csc(C=NNc2ncnc3sc(C(C)(C)C)cc23)n1 (stereo not given) | 1.1 (≈ 2.94 µM)
CNCc1ccc(C=NNc2ncnc3sc(C(C)(C)C)cc23)cc1 | 0.68 (≈ 1.92 µM)
CNCc1csc(C=NNc2ncnc3sc(C4CCC4)cc23)n1 | 1.4 (≈ 3.91 µM)
CC(N)c1csc(C=NNc2ncnc3sc(C(C)(C)CF)cc23)n1 (stereo not given) | 0.68 (≈ 1.8 µM)
CNCc1csc(C=NNc2ncnc3sc(C4CC4)cc23)n1 | > 2
CNCc1csc(C=NNc2ncnc3sc(C(C)C(C)C)cc23)n1 (stereo not given) | 0.88 (≈ 2.35 µM)
CCC(N)c1csc(C=NNc2ncnc3sc(C(C)(C)C)cc23)n1 (stereo not given) | 1.4 (≈ 3.74 µM)
CNCc1csc(C=NNc2ncnc3sc(C(C)C)cc23)n1 | 1.5 (≈ 4.33 µM)
CCC(C)c1cc2c(NN=Cc3nc(CNC)cs3)ncnc2s1 (stereo not given) | 0.44 (≈ 1.22 µM)
CN(C)Cc1csc(C=NNc2ncnc3sc(C(C)(C)C)cc23)n1 | 1.4 (≈ 3.74 µM)
CCCC(C)c1cc2c(NN=Cc3nc(CNC)cs3)ncnc2s1 (stereo not given) | 1.4 (≈ 3.74 µM)
CNCc1csc(C=NNc2ncnc3sc(C(C)(C)C)cc23)n1 | 0.98 (≈ 2.72 µM)
CNCc1csc(C=NNc2ncnc3sc(C4CCCCC4)cc23)n1 | 0.81 (≈ 2.1 µM)
CNCc1csc(C=NNc2ncnc3sc(C(C)(C)CF)cc23)n1 | 1.8 (≈ 4.76 µM)
CC(C)(C)c1cc2c(NN=Cc3cscn3)ncnc2s1 | 2.2 (≈ 6.93 µM)
CNCc1csc(C=NNc2ncnc3sc(C(C)(C)CO)cc23)n1 | 1.8 (≈ 4.78 µM)

The remaining lines, values ahead:

IC50 [µg/mL] | SMILES
0.38 (≈ 1.1 µM) | CC(C)(C)c1cc2c(NN=Cc3nc(CN)cs3)ncnc2s1
0.2 (≈ 0.558 µM) | CC(C)(C)c1cc2c(NN=Cc3nc4c(s3)CNC4)ncnc2s1
0.83 (≈ 2.3 µM) | CC(N)c1csc(C=NNc2ncnc3sc(C(C)(C)C)cc23)n1 (stereo not given)
0.2 (≈ 0.63 µM) | CC(C)(C)c1cc2c(NN=Cc3nccs3)ncnc2s1
0.35 (≈ 0.971 µM) | CNCc1cnc(C=NNc2ncnc3sc(C(C)(C)C)cc23)s1
1 (≈ 2.68 µM) | CC(C)(C)c1cc2c(NN=Cc3nc(C4CNC4)cs3)ncnc2s1
1.7 (≈ 4.24 µM) | CC(C)(C)c1cc2c(NN=Cc3nc(C4CCNCC4)cs3)ncnc2s1
1.8 (≈ 4.66 µM) | CC(C)(C)c1cc2c(NN=Cc3nc(C4CCNC4)cs3)ncnc2s1 (stereo not given)
